Several values for one entry are separate records, joined by “and”; a condition that tells them apart may be missing. Identical values can stand only once.
Experiments:
MH22A cells = experiment: MH22a hepatoma tumors in C3HA mice, Cocktails 1-6 followed by added Xeloda (Example 10c, second experiment); assay type: in vivo, C3HA inbred mice
Description: In Vivo assays using the compounds of the formulas (I) to (IV) and valine esters of formulas I and II each in a triple cocktail with other nucleoside analogs and tumor in combination with AZT and ddI were carried out as follows:
8-10 weeks old male C3HA inbred mice (immunocometent mice) were purchased from Laboratory Animals Breeding Facility of Russian Academy of Medical Science (Rappalovo, Leningrad region). 3×10^5 MH22a cells were injected s.c. into back flank of 200 mice. Ten days after the injections, mice bearing developing tumors (14.15 mm^3) (the tumor volume calculated using the formula π/6 DmaxDmin^2) were selected and randomly divided into different experimental groups as set forth below:
Cocktail 1—Valacyclovir (0.166 mg/ml)+AZT (0.1 mg/ml)+ddI (0.066 mg/ml)−40 mice;
Cocktail 2—SN-1 (1 mg/ml)+AZT (0.1 mg/ml)+ddI (0.066 mg/ml)−10 mice;
Cocktail 3—SN-3 (1 mg/ml)+AZT (0.1 mg/ml)+ddI (0.066 mg/ml)−10 mice;
Cocktail 4—SN4 (1 mg/ml)+AZT (0.1 mg/ml)+ddI (0.066 mg/ml)−10 mice;
cocktail 5—Val-SN-1 (0.166 mg/ml)+AZT (0.1 mg/ml)+ddI (0.066 mg/ml)−20 mice; and
Cocktail 6—Val-SN-2 (0.166 mg/ml)+AZT (0.1 mg/ml)+ddI (0.066 mg/ml)−20 mice; and
Control group—Capecitabine (Xeloda®) (1 mg/ml) in drinking water-mice.
Valacyclovir (Valtrex® manufactured by GlaxoSmithKline) is a prodrug of acyclovir, which is an acyclic nucleoside analog. Didanosine (ddI) and AZT are non-acyclic-nucleoside analogs. The drugs, at the concentrations indicated above, were administered to the mice in drinking water. Two weeks following the cocktail treatments Xeloda® (1 mg/ml) was added to each of the cocktails and continued for the remaining experimental period. In the control group, mice were treated only with Xeloda® (1 mg/ml) in drinking water and this treatment started at the same time as the Xeloda® treatments in the cocktail groups. […] Tumor volumes (mm^3) in each injected mice were calculated, using the formula π/6 DmaxDmin^2, every week for four consecutive weeks following the commencement of the treatment with the drugs.

[1] = test system: inoperable carcinoma of stomach; assay type: in vivo, human; conditions: one patient
Description: (a) Background therapy: 1 tablet of Retrovir® (AZT) 300 mg and 1 tablet of Zovirax™ (acyclovir, Glaxo Welcome), 400 mg/Valcyte® (valganciclovir) 450 mg/Valtrex® (Val-ACV) 500 mg all BID. Different acyclic nucleoside analogs were used during the 83 days of background therapy for reasons related to market availability.

HeLa cells [2] = assay type: in vivo
Description: For in vivo assay, appropriate host, e.g., nude (nu/nu) mice of about 5-7 weeks old are obtained and maintained in pathogen-free conditions. Approximately, 1×10^6 HeLa cells (and/or U-2 OS cells) contained in 200 μl of serum-free media are delivered to all animals, briefly anaesthetize with Metofane, by subcutaneous (s.c.) injection in flank. Then the mice are divided into experimental group and control group. Appropriate concentrations of compounds of the formulas (I) to (VI), ACV, PCV and/or GCV are used for tumor growth progression or regression assays.
In one embodiment, impairment of s.c. tumor growth or time to progression rather than decrease in size of an established tumor (regression) is assessed. In this embodiment, starting from the day zero, mice in the experimental group receive GCV in drinking water ad libitum. Concentration of GCV in water can be 2 mg/ml. Fresh solution of GCV is supplied every 3 days. Mice in the control group receive only drinking water. Tumors are measured every 2-3 days. Mice are sacrificed when tumors exceed 1 cm^3. Tumor volume is calculated with formula 4/3πr^3, where r is the radius of the tumor.
Experimental group received valganciclovir in drinking water from day 0. Human cancer HeLa cell culture was purchased from ATCC. In all, 12 CD1/-nu and 12 NMRiI/-nu nude mice were purchased from Charles River Laboratories, Charles River Deutschland GmbH. These nude mice were injected s.c. with 3×10^5 Hela cells. Mice in the experimental groups (6 mice per strain) were exposed to Valcyte® (val-ganciclovir) in drinking water (1 mg/ml) from day 0.
(a) In vivo assays using Valganciclovir and zidovudine (AZT) combination: Human cancer HeLa cell culture was purchased from ATCC. A total of 24 CD1/-nu nude mice were purchased from Charles River laboratories, Charles River Deutschland GmbH. These mice were injected s.c. with 1×10^5 HeLa cells. The tumor volumes were determined by measurement of maximal and minimal diameters of the tumor. The calculations were conducted using the formula V=4/3 πRmax×Rmin^2, where Rmax−½ of maximal diameter of the tumor, and Rmin−½ of minimal diameter of the tumor. nude mice were injected s.c. with 1×10^5 Hela cells.
Of the 12 treated mice, after 20 days of double cocktail treatment, six mice were administered with a triple cocktail (Valcyte®+Retrovir®+ddI at the dose of 1 mg/ml each in drinking water for a further period 21 days (see Example 7 below) and only six mice continued to receive the double cocktail for another 21 days at which time tumor measurements were taken for all mice injected with HeLa cells. Of the remaining 12 mice injected with HeLa cells but untreated with any cocktail or anticancer agent thus far, six were maintained as controls for the rest of the duration of the experiment. The other six were treated with Xeloda® 67 days after the injection of HeLa cells (see Example 7 below).
As mentioned in Example 5 above, a total of six mice, after 20 days of double cocktail treatment, were administered with a triple cocktail (Valcyte®+Retrovir®+ddI at the dose of 1 mg/ml each in drinking water) for a further period 21 days. After 14 days of triple cocktail treatment, Xeloda® at a concentration 1 mg/ml was added to the triple cocktail. Six mice previously untreated with any drug for 67 days after the injection of HeLa cells were treated with Xeloda® at a concentration 1 mg/ml in drinking water. Tumor measurements were taken in all mice 75 days following the injection of HeLa cells.

U-2 OS cells [3] = experiment: Telomere length (flow cytometry, PNA probe), cell cycle distribution (PI), apoptosis and TRAP status in U-2 OS cells; assay type: cell-based, human
Description: (§1) The ALT cell lines were treated with therapeutic concentrations of AZT, to determine if slippage telomeric DNA synthesis could be inhibited by AZT-TP, and thereby induce telomere shortening. Telomere length in AZT treated and untreated cell lines was measured by flow cytometry with a telomere specific peptide nucleic acid (PNA) probe. To determine cell cycle distribution, cells were stained with propidium iodide (PI).
Rate of DNA synthesis was determined by incorporation of 5-bromodeoxyuridine (BdU). […] It is important to note that changes in cell cycle distribution, DNA synthesis and telomere length were rapid and could be detected after only 10 days of AZT treatment.
Telomere length in untreated and GCV treated cells was measured by flow cytometry with a telomere-specific PNA probe as described above.
To determine cell cycle distribution, cells were stained with propidium iodide (PI).
(§2) Both telomerase positive (Hela) telomerase negative (U-2 OS) cell lines were used. Appropriate assays were performed to detect and confirm telomerase/L1RT specific activity in these cells.
(§3) The U-2 OS (osteosarcoma) and HeLa (uterine cervix) cell lines used in this study were obtained from American Type Culture Collection (Rockville, Md.). Cells were cultured in D-MEM media supplemented with 10% fetal calf serum at 37° C. in a humidified atmosphere of 5% CO2. For treatment of the cells with ACV, the media was supplemented with 3 μM of acyclovir (acyclovir, TEVA Pharm. Ind. Ltd, Israel). For treatment of the cells with GCV, the media was supplemented with 1.5 μM of GCV (Cymevene, Hoffman-La Roche). For treatment of the cells with PCV, the media was supplemented with 1.5 μM of PCV (penciclovir, Merck & Co.).
(§4) Real time TRAP assay was performed as described (Wege et al., SYBR Green real-time telomeric repeat amplification protocol for the rapid quantification of telomerase activity. Nucleic Acids Res. 2003; 31(2):E3-3). For telomere length measurement by flow cytometry, cells were stained with telomere specific FITC conjugated (C3TA2)3 PNA (Applied Biosystems) probe and contrastained with 0.06 μg/ml PI as described by Rufer, N., Dragowska, W., Thornbury G., Roosnek, E., Lansdorp P. M. Telomere length dynamics in human lymphocyte subpopulations […]. Nat. Biotechnol. 16, 743-747 (1998)).
(a) In vitro arrays: U-2 OS cells were incubated with 0.2 μM of AZT for 22 days. Actively growing clones were analyzed by flow-FISH with telomere specific PNA probe, and in real time TRAP assay using HeLa cells as positive control. Isolated actively growing clones were different from parental cells in DNA content and telomere length.
(§5) Telomere length in SN 1 or SN 2 treated and untreated cell lines was measured by flow cytometry with a telomere—specific peptide nucleic acid PNA) probe. To determine cell cycle distribution, cells were stained with propidium iodide (PI).
(§6) The U-2 OS (osteosarcoma) and Hela (uterine cervix) cell lines used in this study were obtained from American Type Culture Collection (Rockville, Md.). Cells were cultured in D-MEM media supplemented with 10% fetal calf serum at 37° C. in a humidified atmosphere of 5% CO2. For treatment of the cells with SN 1 or SN 2, the media was supplemented with 1.5 μM of SN1 or SN2.
(§7) For telomere length measurement by flow cytometry, cells were stained with telomere specific FITC conjugated (C3TA2)3 PNA (Applied Biosystems) probe and contra-stained with 0.06 μg/ml PI as described by Rufer, N., Dragowska, W., Thornbury G., Roosnek, E., Lansdorp P. M. Telomere length dynamics in human lymphocyte subpopulations […]. Nat. Biotechnol. 16, 743-747 (1998)).

U-2 OS/RAS cells = experiment: Prevention and treatment of telomerase negative (ALT) tumors in nude mice injected s.c. with U-2 OS/RAS cells; assay type: in vivo
Description: (a) Nude mice injected with U-2 OS/RAS cells: Crl1:CD1-/nu mice were purchased from Charles River Laboratories, Charles River Deutschland GmbH (Dec. 23, 2004). A total of 12 Nude mice were injected s.c. with 6×10^5 U-2 OS/RAS cells. These mice were divided into experimental and control groups.
The experimental group of mice started to receive AZT in drinking water (1 mg/ml) from the day one. In the control group, mice developed tumors (in N1 by the 26th day; in N2 by the […] and in N3 by the 41st day following the tumor cell injection).
All mice without tumors were sacrificed. One mouse from control group that developed tumors first was sacrificed on the 51 day following the tumor cell injection. Tumor tissue was mechanically separated to raise cell suspension. About 20 million of cells were seeded in McCoy's 5 A media supplemented with 10% FCS. The tissue cultured cells were used for further analysis.
Two mice from control group with tumors started to receive AZT in drinking water (1 mg/ml) from day 52. One mouse had died on day 80. Second was sacrificed on day 110 following the tumor cell injection. Tumor tissue was collected and stored at −80° C. for further analysis.

HeLa cells [4] = experiment: Telomere length (flow cytometry, PNA probe), cell cycle distribution (PI) and apoptosis in HeLa cells; assay type: cell-based, human
Description: as §1
(§8) The origin of the cell lines are uterine cervix (HeLa) and epithelial ovarian (NuTu-19). Cells were cultured in D-MEM media supplemented with 10% fetal calf serum at 37° C. in a humidified atmosphere of 5% CO2. For treatment of the cells with GCV, the media was supplemented with 1.5 μM of GCV (Cymevene, Hoffman-La Roche). For treatment of the cells with ACV, the media was supplemented with 3 μM of Acyclovir (Acyclovir, TEVA Pharm. Ind. Id. Israel).
as §4, §2, §3, §5, §6, §7

U-2 OS cells [5] = conditions: therapeutic concentrations, 14 days; reported in WO 2005/069880; cited from earlier work
[6] = test system: Saos-2 osteosarcoma cells; experiment: Telomere length (flow cytometry, PNA probe), cell cycle distribution (PI) and apoptosis in Saos-2 cells; assay type: cell-based, human; conditions: therapeutic concentrations of AZT, 14 days
Description: as §1

[7] = test system: Saos-2 osteosarcoma cells; conditions: therapeutic concentrations, 14 days; reported in WO 2005/069880; cited from earlier work
NuTu-19 cells = experiment: Telomere length (flow cytometry, PNA probe), cell cycle distribution (PI) and apoptosis in NuTu-19 cells; assay type: cell-based; conditions: AZT even at elevated concentrations e.g., 100 μM
Description: as §8, §4

[8] = Xeloda 1 mg/ml added to cocktails after two weeks

Row | SMILES | Number tumor-free (MH22A cells; 4 weeks of treatment, Xeloda 1 mg/ml added to cocktails after two weeks) | Number died during the 4 week treatment period (MH22A cells; [8]) | Number showing tumors after four weeks of treatment (MH22A cells; [8]) | Tumor volume at the end of the experimental period (MH22A cells; individual tumor-bearing mice, formula π/6 DmaxDmin^2) | toxicity in the patient [1] | average size of tumors less compared to the untreated control group (HeLa cells [2]; Xeloda 1 mg/ml in drinking water from day 67) | survival (HeLa cells [2]; drugs 1 mg/ml each in drinking water, 75 days following injection of HeLa cells) | Tumor Volume (mm^3) in nude mice 75 days following the injection of HeLa cells (HeLa cells [2]; mean value of 4 mice) | telomerase status (real time TRAP assay) of actively growing clones (U-2 OS cells [3]; 0.2 μM of AZT for 22 days) | telomere length and rate of DNA synthesis (BdU incorporation) (U-2 OS cells [3]; AZT for different amounts of time) | telomere length, apoptosis and cell cycle distribution (U-2 OS cells [3]; therapeutic concentrations of AZT, 14 days) | growth of established ALT tumors (U-2 OS/RAS cells; AZT in drinking water (1 mg/ml) from day 52) | tumor development (U-2 OS/RAS cells; AZT in drinking water (1 mg/ml) from day one, three of six control mice developed tumors) | telomere length or cell cycle distribution (HeLa cells [4]; AZT at the chosen concentration, same conditions as ALT cells) | telomere length or cell cycle distribution (HeLa cells [4]; AZT even at elevated concentrations e.g., 100 μM) | telomere length, cell cycle and apoptosis (U-2 OS cells [5]) | telomere length, apoptosis and cell cycle distribution [6] | telomere length, cell cycle and apoptosis [7] | telomere length or cell cycle distribution (NuTu-19 cells)
1 | CCCCCOC(=O)Nc1nc(=O)n([C@@H]2O[C@H](C)[C@@H](O)[C@H]2O)cc1F [Xeloda®] | 0 | 2 | 6 | 6288 mm^3 (2×) and 10480 mm^3 and 1152 mm^3 and 2146 mm^3 and 4192 mm^3 | caused toxicity in the patient | 17% | 66% | 1811.0 (mean value) mm^3 |  |  |  |  |  |  |  |  |  |  | 
2 | Cc1cn([C@H]2C[C@H](N=[N+]=[N-])[C@@H](CO)O2)c(=O)[nH]c1=O [AZT, azido-2′,3′-dideoxythymidine] |  |  |  |  |  |  |  |  | positive for telomerase | progressive telomere shortening and decrease in DNA synthesis | telomere shortening, massive apoptosis and G2 arrest | slowing of tumor growth | No one mice from AZT treated group had developed tumors | no effect on telomere length or cell cycle distribution | no effect on telomere length or cell cycle distribution | telomere shortening, G2 arrest and massive apoptosis | telomere shortening, massive apoptosis and G2 arrest | telomere shortening, G2 arrest and massive apoptosis | no effect on telomere length or cell cycle distribution
